Measurements: ChEMBL document CHEMBL1921757, “Small molecule probes of the receptor binding site in the Vibrio cholerae CAI-1 quorum sensing circuit” (Bioorg Med Chem, 2011)

Assays:
[1] = system: Vibrio cholerae; test: Antibacterial activity against Vibrio cholerae MM920 assessed as growth inhibition after 4 hrs by spectrophotometry; format: organism-based; conditions: in vivo
[2] = target: T1, CAI-1 autoinducer sensor kinase/phosphatase CqsS (Vibrio cholerae serotype O1 (strain ATCC 39315 / El Tor Inaba N16961)) (UniProt Q9KM66); test: Ratio of compound EC50 to (S)-CAI-1 EC50 for CqsS receptor in cqsA-deficient, luxQ-deficient Vibrio cholerae MM920 harboring cosmid pBB1 carrying Vibrio harveyi luxCDABE gene assessed as induction of quorum sensing regulated bioluminescence after 4 hrs by scintillation counting
T1 sequence (whole entry): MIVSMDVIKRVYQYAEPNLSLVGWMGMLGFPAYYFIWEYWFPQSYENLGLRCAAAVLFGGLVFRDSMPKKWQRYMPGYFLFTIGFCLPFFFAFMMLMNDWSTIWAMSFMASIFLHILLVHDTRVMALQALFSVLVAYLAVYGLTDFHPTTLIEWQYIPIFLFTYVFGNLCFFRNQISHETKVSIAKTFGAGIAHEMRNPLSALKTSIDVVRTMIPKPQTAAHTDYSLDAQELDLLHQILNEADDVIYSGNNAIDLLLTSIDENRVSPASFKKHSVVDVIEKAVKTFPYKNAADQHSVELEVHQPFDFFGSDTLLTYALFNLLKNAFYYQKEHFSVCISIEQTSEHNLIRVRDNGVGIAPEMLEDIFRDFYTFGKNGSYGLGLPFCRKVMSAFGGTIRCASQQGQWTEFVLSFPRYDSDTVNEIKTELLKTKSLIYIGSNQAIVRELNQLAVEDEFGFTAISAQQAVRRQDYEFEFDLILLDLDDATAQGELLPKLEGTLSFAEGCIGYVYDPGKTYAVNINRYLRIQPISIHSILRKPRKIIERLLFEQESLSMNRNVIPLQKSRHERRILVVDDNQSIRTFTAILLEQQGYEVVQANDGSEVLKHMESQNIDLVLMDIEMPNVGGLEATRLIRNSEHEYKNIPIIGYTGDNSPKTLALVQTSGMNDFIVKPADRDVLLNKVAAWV

[3] = target: T2, CAI-1 autoinducer sensor kinase/phosphatase CqsS (Vibrio cholerae serotype O1 (strain ATCC 39315 / El Tor Inaba N16961), UniProt Q9KM66); test: Agonist activity at CqsS receptor in cqsA-deficient, luxQ-deficient Vibrio cholerae MM920 harboring cosmid pBB1 carrying Vibrio harveyi luxCDABE gene assessed as induction of quorum sensing regulated bioluminescence after 4 hrs by scintillation counting; format: functional
T2 sequence (Q9KM66 whole entry): T1 sequence (whole entry)

[4] = target: T1, CAI-1 autoinducer sensor kinase/phosphatase CqsS (Vibrio cholerae serotype O1 (strain ATCC 39315 / El Tor Inaba N16961)); test: Agonist activity at CqsS receptor in cqsA-deficient, luxQ-deficient Vibrio cholerae MM920 harboring cosmid pBB1 carrying Vibrio harveyi luxCDABE gene assessed as maximal quorum sensing regulated bioluminescence at 50 uM after 4 hrs by scintillation counting relative to (S)-CAI-1; format: functional
[5] = target: T1, CAI-1 autoinducer sensor kinase/phosphatase CqsS (Vibrio cholerae serotype O1 (strain ATCC 39315 / El Tor Inaba N16961)); test: Agonist activity at CqsS receptor in cqsA-deficient, luxQ-deficient Vibrio cholerae MM920 harboring cosmid pBB1 carrying Vibrio harveyi luxCDABE gene assessed as quorum sensing regulated bioluminescence after 4 hrs by scintillation counting relative to (S)-CAI-1; format: functional
[6] = target: T1, CAI-1 autoinducer sensor kinase/phosphatase CqsS (Vibrio cholerae serotype O1 (strain ATCC 39315 / El Tor Inaba N16961)); test: Ratio of compound IC50 to Ph-CAI-1 IC50 for CqsS receptor in Vibrio cholerae MM920 assessed as inhibition of quorum sensing regulated CAI-1 induced bioluminescence after 4 hrs by scintillation counting
[7] = target: T1, CAI-1 autoinducer sensor kinase/phosphatase CqsS (Vibrio cholerae serotype O1 (strain ATCC 39315 / El Tor Inaba N16961)); test: Antagonist activity at CqsS receptor in Vibrio cholerae MM920 assessed as inhibition of quorum sensing regulated CAI-1 induced bioluminescence after 4 hrs by scintillation counting relative to Ph-CAI-1; format: functional
[8] = target: T2, CAI-1 autoinducer sensor kinase/phosphatase CqsS; test: Antagonist activity at CqsS receptor in Vibrio cholerae MM920 assessed as inhibition of quorum sensing regulated CAI-1 induced bioluminescence after 4 hrs by scintillation counting; format: functional

Row | SMILES | growth inhibition (GI) [1] | Ratio EC50 [2] | EC50 [3] | Emax [4] | Emax [5] | Ratio IC50 [6] | Imax [7] | IC50 [8]
1 | CCCCCC(=O)[C@@H](O)CC | Not Active | > 200 | > 50000 nM | 27% | – | – | – | –
2 | CCCCCCC(=O)[C@@H](O)CC | Not Active | > 200 | > 50000 nM | 59% | – | – | – | –
3 | CCCCCCCC(=O)[C@@H](O)CC | Not Active | – | – | – | – | – | – | –
4 | CCCCCCCC(=O)[C@H](O)CC | Not Active | – | – | – | – | – | – | –
5 | CCCCCCCCC(=O)[C@@H](O)CC | Not Active | 4.6 | 1100 nM | – | 100% | – | – | –
6 | CCCCCCCCC(=O)[C@H](O)CC | Not Active | 6.7 | 1610 nM | – | 95% | – | – | –
7 | CCCCCCCCCC(=O)[C@@H](O)CC | Not Active | – | – | – | – | – | – | –
8 | CCCCCCCCCC(=O)[C@H](O)CC | Not Active | – | – | – | – | – | – | –
9 | CCCCCCCCCCC(=O)[C@@H](O)CC | Not Active | 8.4 | 2090 nM | – | 98% | – | – | –
10 | CCCCCCCCCCCCC(=O)[C@@H](O)CC | Not Active | > 200 | > 50000 nM | 45% | – | – | – | –
11 | CCCCCCCCCC(=O)C(=O)CC | Not Active | 14 | 3200 nM | – | 92% | – | – | –
12 | CCCCCCCCCC(O)C(=O)CC (configuration not stated) | Not Active | 84 | – | – | 38% | – | – | –
13 | CCCCCCCCCC(O)CCC (configuration not stated) | Not Active | > 200 | > 50000 nM | – | – | – | – | –
14 | CCCCCCCCCC(=O)CCC | Not Active | > 200 | > 50000 nM | – | – | – | – | –
15 | CCCCCCCCCCC(O)CC (configuration not stated) | Not Active | > 200 | > 50000 nM | – | – | – | – | –
16 | CCCCCCCCCCC(=O)CC | Not Active | > 200 | > 50000 nM | – | – | – | – | –
17 | CCCCCCCCCC(=O)C(Cl)CC (configuration not stated) | Not Active | > 200 | > 50000 nM | – | 24% | – | – | –
18 | CCCCCCCCCC(=O)C(Br)CC (configuration not stated) | Not Active | 13 | 2400 nM | – | 73% | – | – | –
19 | CCCCCCCCCC(=O)C(S)CC (configuration not stated) | Not Active | 8.6 | 1600 nM | – | 67% | – | – | –
20 | CCCCCCCCCC(=O)C(N)CC.Cl (configuration not stated) | Not Active | 0.27 | 210 nM | – | 105% | – | – | –
21 | CCCCCCCCCC(=O)[C@H](C)O | Not Active | 2.6 | 340 nM | – | 96% | – | – | –
22 | CCCCCCCCCC(O)C(O)CC (mixture of isomers) | Not Active | 18 | 4300 nM | – | 83% | – | – | –
23 | CCCCCCCCCC(=O)C(O)CCC (racemic) | Not Active | 6 | 780 nM | – | 84% | – | – | –
24 | CCCCCCCCCC(=O)C(O)C(C)C (racemic) | Not Active | 21 | 7160 nM | – | 71% | – | – | –
25 | CCCCCCCCCC(=O)C(O)C(C)(C)C (racemic) | Not Active | > 200 | > 50000 nM | – | – | – | – | –

Row | SMILES | growth inhibition (GI) [1] | Ratio EC50 [2] | EC50 [3] | Emax [4] | Emax [5] | Ratio IC50 [6] | Imax [7] | IC50 [8]
26 | CCCCCCCCCC(=O)C(O)c1ccccc1 (racemic) | Not Active | – | – | – | – | 1 | 100% | 55 µM
27 | CCCCCCCCCC(=O)C(O)c1ccccc1C (racemic) | Not Active | – | – | – | – | > 9 | – | > 500 µM
28 | CCCCCCCCCC(=O)C(O)c1cccc(C)c1 (racemic) | Not Active | – | – | – | – | 0.91 | 58% | 46 µM
29 | CCCCCCCCCC(=O)C(O)c1ccc(C)cc1 (racemic) | Not Active | – | – | – | – | 2.2 | 99% | 114 µM
30 | CCCCCCCCCC(=O)C(O)c1ccc(C)c(C)c1 (racemic) | Not Active | – | – | – | – | > 9 | – | > 500 µM
31 | CCCCCCCCCC(=O)C(O)c1ccccc1O (racemic) | Not Active | – | – | – | – | 3.4 | 144% | 172 µM
32 | CCCCCCCCCC(=O)C(O)c1cccc(O)c1 (racemic) | Not Active | – | – | – | – | 0.71 | 123% | 36 µM
33 | CCCCCCCCCC(=O)C(O)c1ccc(O)cc1 (racemic) | Not Active | – | – | – | – | 1.5 | 119% | 78 µM
34 | CCCCCCCCCC(=O)C(O)c1ccc(O)c(O)c1 (racemic) | Not Active | – | – | – | – | 3.4 | 122% | 174 µM
35 | CCCCCCCCCC(=O)C(O)c1ccccc1OC (racemic) | Not Active | – | – | – | – | > 9 | – | > 500 µM
36 | CCCCCCCCCC(=O)C(O)c1cccc(OC)c1 (racemic) | Not Active | – | – | – | – | > 9 | – | > 500 µM
37 | CCCCCCCCCC(=O)C(O)c1ccc(OC)cc1 (racemic) | Not Active | – | – | – | – | > 9 | – | > 500 µM
38 | CCCCCCCCCC(=O)C(O)c1ccccc1F (racemic) | Not Active | – | – | – | – | 1.5 | 105% | 74 µM
39 | CCCCCCCCCC(=O)C(O)c1cccc(F)c1 (racemic) | Not Active | – | – | – | – | 3.5 | 112% | 178 µM
40 | CCCCCCCCCC(=O)C(O)c1ccc(F)cc1 (racemic) | Not Active | – | – | – | – | 2.7 | 125% | 137 µM
41 | CCCCCCCCCC(=O)C(O)c1cc(F)ccc1F (racemic) | Not Active | – | – | – | – | 1.3 | 48% | 68 µM
42 | CCCCCCCCCC(=O)C(O)c1ccccc1Cl (racemic) | Not Active | – | – | – | – | > 9 | – | > 500 µM
43 | CCCCCCCCCC(=O)C(O)c1cccc(Cl)c1 (racemic) | Not Active | – | – | – | – | > 9 | – | > 500 µM
44 | CCCCCCCCCC(=O)C(O)c1ccc(Cl)cc1 (racemic) | Not Active | – | – | – | – | > 9 | – | > 500 µM
45 | CCCCCCCCCC(=O)C(O)c1ccccc1Br (racemic) | Not Active | – | – | – | – | > 9 | – | > 500 µM
46 | CCCCCCCCCC(=O)C(O)c1cccc(Br)c1 (racemic) | Not Active | – | – | – | – | > 9 | – | > 500 µM
47 | CCCCCCCCCC(=O)C(O)c1ccc(Br)cc1 (racemic) | Not Active | – | – | – | – | 2.6 | 71% | 185 µM
48 | CCCCCCCCCC(=O)C(O)Cc1ccccc1 (racemic) | Not Active | – | – | – | – | 1.9 | 124% | 136 µM
49 | CCCCCCCCCC(=O)C(N)c1ccccc1.Cl (racemic) | Not Active | – | – | – | – | > 9 | – | > 500 µM
